The record followed here is patent EP4438597A1, “2-STYRYLBENZOTHIAZOLE DERIVATIVES AS A-SYNUCLEIN BINDING COMPOUNDS” (Eberhard Karls Universität Tübingen Medizinische Fakultät, priority 2023, dated 2024).

The Ki is the dissociation constant of the complex between target and ligand, obtained from inhibition or displacement.

The target in assay [1] is T1, αSYN fibrils (Homo sapiens, UniProt P37840). Description: [3H]PiB competition binding assay on αSYN fibrils. The procedure:
(§1) Concentrations of αSYN and Aβ1-42 fibrils were as described above.
Plates were incubated on a shaker (MaxQ 6000, Thermo Fisher Scientific Inc., Marietta, OH, USA) at 50 rpm for 2 hours at 37°C, covered by removable sealing tapes (PerkinElmer, Waltham, MA, USA). […] Data points were fitted using non-linear regression analysis in GraphPad Prism (GraphPad Software, Inc., Version 8.4.0, La Jolla, USA).

Assay [2] concerns the target T1, αSYN fibrils. The experiment in a line: [3H]MODAG-001 competition binding assay on αSYN fibrils. To be noted: for Ki: competition with [3H]MODAG-001, αSYN fibrils. The procedure:
as §1
(§2) Plates were incubated on a shaker (MaxQ 6000, Thermo Fisher Scientific Inc., Marietta, OH, USA) at 50 rpm for 2 hours at 37°C, covered by removable sealing tapes (PerkinElmer, Waltham, MA, USA). Vacuum filtration and read-out were performed as disclosed in Kuebler, L. et al., [11C]MODAG-001-towards a PET tracer targeting α-synuclein aggregates; European Journal of Nuclear Medicine and Molecular Imaging 2020, 48, 1759-1772. […] Data points were fitted using non-linear regression analysis in GraphPad Prism (GraphPad Software, Inc., Version 8.4.0, La Jolla, USA).

For a further assay, the target named is T2, Aβ1-42 fibrils (Homo sapiens, UniProt P05067).
T2 construct: Synthetic lyophilized human Aβ1-42 peptide; purchased EMC Microcollections, Tuebingen, Germany; host or cells: chemical synthesis
Description: [3H]PiB competition binding assay on Aβ fibrils. To be noted: for binding to Aβ fibrils (competition with [3H]PiB): [3H]PiB competition on Aβ fibrils.
From the text: The method for Aβ1-42 fibrils generation was adapted from Bagchi, D. P. et al., Binding of the radioligand SIL23 to alpha-synuclein fibrils in Parkinson disease brain tissue establishes feasibility and screening approaches for developing a Parkinson disease imaging agent; PLoS One 2013, 8 (2), e55031, and described in Kuebler, L. et al., [11C]MODAG-001-towards a PET tracer targeting α-synuclein aggregates; European Journal of Nuclear Medicine and Molecular Imaging 2020, 48, 1759-1772. Synthetic lyophilized human Aβ1-42 peptide (5 mg) with >90 % purity (EMC Microcollections, Tuebingen, Germany) was dissolved in DMSO (221.5 µL), followed by the addition of deionized water (4.1 mL) and 1 M Tris-HCl (111 µL, pH 7.6) to reach a final monomeric concentration of 250 µM. Aggregation was induced by incubation in Eppendorf Thermomixer at 37°C with shaking at 800 rpm for 72 hours. The resulted fibrils were sonicated for 3 min in a water bath (Elmasonic S 60 H, Elma Schmidbauer GmbH, Singen, Germany). The final products were aliquoted, frozen on dry ice, and stored at -80°C until use.
as §1, §2

Setting [3] is: [3H]PiB competition, αSYN fibrils, mean Ki ± SEM, two data points (9a, 14a, 15a, 17a, 18a, 43, 44, MFSB three; 12a single), read-out: Ki.

T2 sequence (P05067 672-713 limits assumed): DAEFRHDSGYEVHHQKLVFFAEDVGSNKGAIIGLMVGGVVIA

As for `Cc1ccc2nc(C=Cc3ccc(N4CCCCC4)cc3)sc2c1` [7a, 6-methyl-2-(4-(piperidin-1-yl)styryl)benzo[d]thiazole], the Ki on αSYN fibrils [1] (read-out: Ki) is 224 ± 6.1 nM.

In turn, `Cc1cccc2sc(/C=C/c3ccc(N4CCCCC4)cc3)[n+](C)c12` [1b, 3,4-dimethyl-2-(4-(piperidin-1-yl)styryl)benzo[d]thiazol-3-ium 4-nitrobenzenesulfonate] gave a Ki at αSYN fibrils [1] of 60 ± 23.9 nM. `Fc1ccc2nc(C=Cc3ccc(N4CCOCC4)cc3)sc2c1` [compound 45, 4-(4-(2-(6-fluorobenzo[d]thiazol-2-yl)vinyl)phenyl)morpholine]: on αSYN fibrils [2] ([3H]MODAG-001 competition, MFSB vs PFSB), the “fold lower Ki than PFSB” value was 4.6 fold. In addition, the Ki turned out to be 30.8 ± 10.5 nM on αSYN fibrils [2] and 10.3 ± 4.7 nM on αSYN fibrils [1] (setting [3]). Also, the “selectivity towards αSYN over Aβ” value at Aβ1-42 fibrils (from [3H]PiB competition on αSYN and Aβ fibrils) is “remained unchanged”. Moreover, the “affinity improved by factor compared to PFSB” value on αSYN fibrils [1] ([3H]PiB competition, αSYN fibrils, MFSB vs PFSB) came out at 2.5.

For `C[n+]1c(C=Cc2ccc(N3CCCC3)cc2)sc2ccccc21` [17b, 3-methyl-2-(4-(pyrrolidin-1-yl)styryl)benzo[d]thiazol-3-ium iodide], the inhibition constant Ki at αSYN fibrils [1] (read-out: Ki) is 102 ± 43 nM. For the compound `Fc1ccc2nc(C=CC=Cc3ccc(N4CCCCC4)cc3)sc2c1` [compound 43, 6-fluoro-2-(4-(4-(piperidin-1-yl)phenyl)buta-1,3-dien-1-yl)benzo[d]thiazole], the “binding to Aβ fibrils (competition with [3H]PiB)” value on Aβ1-42 fibrils is listed as “low”. Further, at αSYN fibrils [1] (setting [3]), the Ki was 214 ± 122 nM. For `C[n+]1c(C=CC=Cc2ccc(N3CCCCC3)cc2)sc2ccccc21` [14b, 3-methyl-2-(4-(4-(piperidin-1-yl)phenyl)buta-1,3-dien-1-yl)benzo[d]thiazol-3-ium iodide], at αSYN fibrils [1] (read-out: Ki), the Ki is 19.9 ± 3.1 nM. Take `C[n+]1c(C=Cc2ccc(N3CCCCC3)cc2)sc2ccc(F)cc21` [6b, 5-fluoro-3-methyl-2-(4-(piperidin-1-yl)styryl)benzo[d]thiazol-3-ium iodide]: at αSYN fibrils [1] (read-out: Ki), the inhibitory constant (Ki) worked out at 352 ± 83.5 nM.

For `C(C=Cc1nc2ccccc2s1)=Cc1ccc(N2CCCCC2)cc1` [14a, 2-(4-(4-(piperidin-1-yl)phenyl)buta-1,3-dien-1-yl)benzo[d]thiazole], at αSYN fibrils [1] (setting [3]), the inhibition constant Ki stood at 81.9 ± 15.6 nM. Regarding `COc1cccc2sc(C=Cc3ccc(N4CCCCC4)cc3)[n+](C)c12` [2b, 4-methoxy-3-methyl-2-(4-(piperidin-1-yl)styryl)benzo[d]thiazol-3-ium iodide], at αSYN fibrils [1] (read-out: Ki), the Ki was determined as 52.6 ± 18.3 nM. `FC1CCN(c2ccc(C=Cc3nc4ccccc4s3)cc2)CC1` [18a, 2-(4-(4-fluoropiperidin-1-yl)styryl)benzo[d]thiazole]: the Ki at αSYN fibrils [1] (setting [3]) was determined as 99.8 ± 32.6 nM. Take `Fc1ccc2nc(C=CC=Cc3ccc(N4CCCC4)cc3)sc2c1` [compound 44, 6-fluoro-2-(4-(4-(pyrrolidin-1-yl)phenyl)buta-1,3-dien-1-yl)benzo[d]thiazole]: the “binding to Aβ fibrils (competition with [3H]PiB)” value at Aβ1-42 fibrils is “low”. Moreover, the inhibition constant Ki at αSYN fibrils [1] (setting [3]) was determined as 85 ± 41 nM. For `COc1ccc2sc(C=Cc3ccc(N4CCCCC4)cc3)nc2c1` [5a, 5-methoxy-2-(4-(piperidin-1-yl)styryl)benzo[d]thiazole], on αSYN fibrils [1] (read-out: Ki), the Ki came out at 158 ± 29.7 nM. Consider `C(=Cc1nc2ccccc2s1)c1ccc(N2CCCCC2)cc1` [compound 20, 2-(4-(piperidin-1-yl)styryl)benzo[d]thiazole], for which the Ki on αSYN fibrils [1] (read-out: Ki) is 102 ± 68.5 nM. Turning to `Fc1cccc2nc(C=Cc3ccc(N4CCCCC4)cc3)sc12` [12a, 7-fluoro-2-(4-(piperidin-1-yl)styryl)benzo[d]thiazole], the Ki at αSYN fibrils [1] (setting [3]) was 283 nM.

As for `C(=Cc1nc2ccccc2s1)c1ccc(N2CCCC2)cc1` [17a, 2-(4-(pyrrolidin-1-yl)styryl)benzo[d]thiazole], on αSYN fibrils [1] (setting [3]), the Ki was found to be 73.4 ± 19 nM. For the compound `Cc1ccc2sc(C=Cc3ccc(N4CCCCC4)cc3)[n+](C)c2c1` [4b, 3,5-dimethyl-2-(4-(piperidin-1-yl)styryl)benzo[d]thiazol-3-ium iodide], the Ki on αSYN fibrils [1] (read-out: Ki) stood at 72.2 ± 12.4 nM. On to `Fc1cccc2sc(C=Cc3ccc(N4CCCCC4)cc3)nc12` [3a, 4-fluoro-2-(4-(piperidin-1-yl)styryl)benzo[d]thiazole], for which, at αSYN fibrils [1] (read-out: Ki), the Ki came out at 149 ± 38 nM. Still for that read-out and setting: the figure for `c1ccc2sc(-c3ccc(N4CCCCC4)cc3)nc2c1` [13a, 2-(4-(piperidin-1-yl)phenyl)benzo[d]thiazole] is 73.3 ± 61.2 nM. On the same count and under the same terms, the figure for `COc1cccc2c1sc(C=Cc1ccc(N3CCCCC3)cc1)[n+]2C` [11b, 7-methoxy-3-methyl-2-(4-(piperidin-1-yl)styryl)benzo[d]thiazol-3-ium iodide] is 206 ± 28.2 nM; for `COc1ccc2c(c1)sc(C=Cc1ccc(N3CCCCC3)cc1)[n+]2C` [8b, 6-methoxy-3-methyl-2-(4-(piperidin-1-yl)styryl)benzo[d]thiazol-3-ium iodide] it is 14.7 ± 5.1 nM. The same measure, in the same setting: the figure for `Cc1cccc2c1sc(C=Cc1ccc(N3CCCCC3)cc1)[n+]2C` [10b, 3,7-dimethyl-2-(4-(piperidin-1-yl)styryl)benzo[d]thiazol-3-ium iodide] is 148 ± 83.7 nM; for `C(=Cc1nc2ccccc2s1)c1ccc(N2CCSCC2)cc1` [16a, 2-(4-thiomorpholinostyryl)benzo[d]thiazole] it is 139 ± 80.2 nM. In the case of `Fc1ccc2nc(C=Cc3ccc(N4CCCCC4)cc3)sc2c1` (mixture of isomers) [9a, 6-fluoro-2-(4-(piperidin-1-yl)styryl)benzo[d]thiazole], the Ki is 142 ± 16.9 nM on αSYN fibrils [2] and 25.4 ± 2.3 nM at αSYN fibrils [1] (setting [3]). As to `Cc1cccc2sc(C=Cc3ccc(N4CCCCC4)cc3)nc12` [1a, 4-methyl-2-(4-(piperidin-1-yl)styryl)benzo[d]thiazole], the Ki on αSYN fibrils [1] (read-out: Ki) is 135 ± 63.5 nM. The same measure, in the same setting: in the case of `COc1ccc2nc(C=Cc3ccc(N4CCCCC4)cc3)sc2c1` [8a, 6-methoxy-2-(4-(piperidin-1-yl)styryl)benzo[d]thiazole] it was 106 ± 3.6 nM; in that of `Cc1ccc2c(c1)sc(C=Cc1ccc(N3CCCCC3)cc1)[n+]2C` [7b, 3,6-dimethyl-2-(4-(piperidin-1-yl)styryl)benzo[d]thiazol-3-ium iodide], 20.3 ± 3.5 nM; in that of `Cc1ccc2sc(C=Cc3ccc(N4CCCCC4)cc3)nc2c1` [4a, 5-methyl-2-(4-(piperidin-1-yl)styryl)benzo[d]thiazole], 161 ± 72.7 nM. The same measure, in the same setting: the figure for `C[n+]1c(C=Cc2ccc(N3CCCCC3)cc2)sc2cc(F)ccc21` [9b, 6-fluoro-3-methyl-2-(4-(piperidin-1-yl)styryl)benzo[d]thiazol-3-ium iodide] is 189 ± 146 nM. Consider `Fc1ccc2sc(C=Cc3ccc(N4CCCCC4)cc3)nc2c1` [6a, 5-fluoro-2-(4-(piperidin-1-yl)styryl)benzo[d]thiazole], for which the inhibitory constant (Ki) on αSYN fibrils [1] (read-out: Ki) amounted to 147 ± 22.3 nM. Take `COc1ccc2sc(C=Cc3ccc(N4CCCCC4)cc3)[n+](C)c2c1` [5b, 5-methoxy-3-methyl-2-(4-(piperidin-1-yl)styryl)benzo[d]thiazol-3-ium iodide]: the Ki on αSYN fibrils [1] (read-out: Ki) was determined as 95.2 ± 67.7 nM. Take `C(=Cc1nc2ccccc2s1)c1ccc(N2CCOCC2)cc1` [15a, 4-(4-(2-(benzo[d]thiazol-2-yl)vinyl)phenyl)morpholine]: the Ki at αSYN fibrils [1] (setting [3]) was found to be 92 ± 30.3 nM.
